In data set [1] the test system is EBOV (mucin-deleted glycoprotein, VSV pseudotype). The experiment in a line: microbe, parasite or virus in culture. The format is cell-based, Zaire ebolavirus. The note with it: Zaire ebolavirus, Vero, 24 h, read-out: EC50 Pseudotype Assays EBOV.
The test system of data set [2] is BDBV (mucin-deleted glycoprotein, VSV pseudotype). Nature of the data set: microbe, parasite or virus in culture. The class given is cell-based, Bundibugyo ebolavirus. The conditions noted are these: Vesicular stomatitis virus, Vero, 24 h, read-out: EC50 Pseudotype Assays BDBV.
The test system of data set [3] is SUDV (glycoprotein, VSV pseudotype). The experiment in a line: microbe, parasite or virus in culture. The class given is cell-based, Sudan ebolavirus. The conditions noted are these: Vesicular stomatitis virus, Vero, 24 h, read-out: EC50 Pseudotype Assays SUDV.
A short description of the next data set: in vitro. The conditions noted are these: African green monkey, Cytotox CC50.

Our source for the EC50 and CC50 values is US11548893B2 (priority 2017, dated 2023).

Usually EC50 stands for the concentration giving half of the maximal effect. By CC50 is commonly meant the concentration giving 50% cytotoxicity. Low values mean harm at low concentration, high ones better tolerance by the cells.

As for `CCC12CC3CC(CNC4CCNCC4(C)C)(C1)CC(c1ccccc1)(C3)C2` (centres unmarked) [Example A61], the EC50 came to 0.8 µM in data set [1], 0.75 µM in data set [2] and 0.66 µM in data set [3]. In “in vitro”, this molecule returned a cytotoxic concentration (CC50) of 1.24 µM.

As to `CC12CC3CC(C(=O)NC45CCN(CC4)CC5)(C1)CC(c1ccccc1)(C3)C2` (racemic) [Example A60], the EC50 in data set [1] is 0.035 µM; in data set [2] it was 0.12 µM; in data set [3] it was 0.33 µM. Moreover, the midpoint of cytotoxicity in the data set “in vitro”, the CC50, lay at 23.1 µM.

As to `CC12CC3CC(C(=O)N4C[C@H]5CNC[C@H]5C4)(C1)CC(c1ccccc1)(C3)C2` (mixture of isomers) [Example A45], the EC50 in data set [1] worked out at 0.205 µM; in data set [2], 0.301 µM; in data set [3], 0.33 µM. Besides, in the data set “in vitro”, the CC50 stood at 30.6 µM.

In the case of `CC12CC3CC(C(=O)N4CCC5(CC5N)C4)(C1)CC(c1ccccc1)(C3)C2` (racemic) [Example A41], the EC50 came out at 0.153 µM in data set [1], 0.209 µM in data set [2] and 0.68 µM in data set [3]. Further, the midpoint of cytotoxicity in the data set “in vitro”, the CC50, lay at 27.7 µM.

In the case of `CC12CC3CC(C(=O)N4CCC5(CCN5)CC4)(C1)CC(c1ccccc1)(C3)C2` (racemic) [Example A51], the EC50 turned out to be 0.157 µM in data set [1], 0.228 µM in data set [2] and 0.52 µM in data set [3].

Consider `C[C@]12CC3CC(C(=O)N4CC5(CC(N)C5)C4)(C1)C[C@@](c1ccccc1)(C3)C2` [Example B11], for which the EC50 in data set [1] came to 0.064 µM; in data set [2] it was 0.104 µM; in data set [3], 0.26 µM. The molecule further returned a CC50 in the data set “in vitro” of 23.6 µM.

Regarding `C[C@@]12CC3CC(C(=O)N4CCC(N)C5(CC5)C4)(C1)C[C@](c1ccccc1)(C3)C2` (some centres unmarked) [Example C9], the results for the EC50 in data set [1], in data set [2] and in data set [3] were 0.269 µM, 0.15 µM and 0.62 µM, respectively.

Take `C[C@@]12CC3CC(C(=O)NC4CCNCC4)(C1)C[C@](c1ccccc1)(C3)C2` [Example C1]: the figures for the EC50 in data set [1], in data set [2] and in data set [3] were 0.238 µM, 0.186 µM and 0.685 µM, respectively. In the data set “in vitro”, this molecule displayed a CC50 of 16.3 µM.

With `CCC12CC3CC(CNC4CCNCC4)(C1)CC(c1ccccc1)(C3)C2` (centres unmarked) [Example A62], the EC50 in data set [1] stood at 0.9 µM; in data set [2] it was 0.5 µM; in data set [3], 0.54 µM. Also, in “in vitro”, the CC50 was found to be 1.62 µM.

Take `CCC12CC3CC(C(=O)N4CC[C@H](N)[C@@H](F)C4)(C1)CC(c1ccccc1)(C3)C2` (mixture of isomers) [Example A24]: the figures for the EC50 in data set [1], in data set [2] and in data set [3] were 0.203 µM, 0.253 µM and 0.31 µM, respectively. The same molecule yielded a CC50 in the data set “in vitro” of 11.2 µM.

Consider `CC1(N)CCN(C(=O)C23CC4CC(C)(C2)CC(c2ccccc2)(C4)C3)CC1` (racemic) [Example A37], for which the figures for the EC50 in data set [1], in data set [2] and in data set [3] were 0.058 µM, 0.0587 µM and 0.22 µM, respectively. Besides, in the data set “in vitro”, the midpoint of cytotoxicity, the CC50, lay at 10.9 µM.

For the molecule `CC1(C)CN(C(=O)C23CC4C[C@@](C)(C2)C[C@](c2ccccc2)(C4)C3)CC[C@H]1N` [Example B12], the figures for the EC50 in data set [1], in data set [2] and in data set [3] were 0.095 µM, 0.105 µM and 0.2 µM, respectively. Further, it took 13.3 µM to reach half-maximal cytotoxicity in “in vitro” (CC50).

For the molecule `CCC12CC3CC(C(=O)NC4CCC5(CC4)CNC5)(C1)CC(c1ccccc1)(C3)C2` (racemic) [Example A27], the half-maximal effective concentration (EC50) is 0.134 µM in data set [1], 0.567 µM in data set [2] and 1.75 µM in data set [3]. Moreover, the CC50 in “in vitro” was found to be 7.9 µM.

For the molecule `CC1CC(N)CCN1C(=O)C12CC3CC(C)(C1)CC(c1ccccc1)(C3)C2` (racemic) [Example A40], the results for the EC50 in data set [1], in data set [2] and in data set [3] were 0.069 µM, 0.165 µM and 0.45 µM, respectively. The molecule further displayed a CC50 in “in vitro” of 24.6 µM.

As to `CCC12CC3CC(CN[C@H]4CC[C@H](CN)CC4)(C1)CC(c1ccccc1)(C3)C2` (some centres unmarked) [Example A64], the EC50 is 0.61 µM in data set [1], 0.3 µM in data set [2] and 0.53 µM in data set [3]. This molecule also showed a CC50 in the data set “in vitro” of 1.24 µM.

Consider `CC12CC3CC(C(=O)N[C@@H]4CCCN5CCC[C@H]45)(C1)CC(c1ccccc1)(C3)C2` (mixture of isomers) [Example A59], for which the EC50 in data set [1] was found to be 0.026 µM; in data set [2], 0.257 µM; in data set [3] it was 0.4 µM. This molecule also registered a CC50 in “in vitro” of 12.7 µM.

For `CC1(C)CN(CC23CC4C[C@@](C)(C2)C[C@](c2ccccc2)(C4)C3)CC[C@@H]1N` [Example B70], the EC50 in data set [1] was 0.628 µM; in data set [2], 0.93 µM; in data set [3], 1.02 µM.

As for `CC12CC3CC(C(=O)N4CC5(CNC5)C4)(C1)CC(c1ccccc1)(C3)C2` (racemic) [Example A47], the EC50 in data set [1] came to 0.065 µM; in data set [2] it was 0.238 µM; in data set [3], 0.335 µM. The same molecule had a CC50 in the data set “in vitro” of 42.3 µM.

Regarding `CC12CC3CC(C(=O)N4CC[C@H](N)C4)(C1)CC(c1ccccc1)(C3)C2` (mixture of isomers) [Example A54], the EC50 stood at 0.12 µM in data set [1], 0.2 µM in data set [2] and 0.35 µM in data set [3]. This molecule also registered a CC50 in the data set “in vitro” of 11.3 µM.

Take `C[C@@H]1C[C@H](NC(=O)C23CC4C[C@@](C)(C2)C[C@](c2ccccc2)(C4)C3)CCN1` [Example B14]: the EC50 in data set [1] stood at 0.025 µM; in data set [2], 0.25 µM; in data set [3], 0.73 µM. In the data set “in vitro”, this molecule displayed a CC50 of 14.4 µM.

Consider `c1ccc(C23CC4CC(CC(CN5CCNCC5)(C4)C2)C3)cc1` [Example A67], for which the EC50 in data set [1], in data set [2] and in data set [3] was above 1 µM throughout.

As to `CC12CC3CC(C(=O)N4CCC5(CCNCC5)CC4)(C1)CC(c1ccccc1)(C3)C2` (racemic) [Example A50], the EC50 in data set [1] is 0.061 µM; in data set [2], 0.09 µM; in data set [3] it was 0.16 µM. The CC50 in the data set “in vitro” came to 8.78 µM.

`CC12CC3CC(C(=O)N4CCC[C@H](N)C4)(C1)CC(c1ccccc1)(C3)C2` (mixture of isomers) [Example A56]: the EC50 amounted to 0.107 µM in data set [1], 0.075 µM in data set [2] and 0.06 µM in data set [3]. The CC50 in “in vitro” was 9.09 µM.

Take `CCC1CNCCN1C(=O)C12CC3CC(C)(C1)CC(c1ccccc1)(C3)C2` (racemic) [Example A36]: the EC50 amounted to 0.171 µM in data set [1], 0.229 µM in data set [2] and 0.13 µM in data set [3]. The molecule further had a CC50 in the data set “in vitro” of 8.31 µM.

For the molecule `CC1(C)CN(CC23CC4C[C@@](C)(C2)C[C@](c2ccccc2)(C4)C3)CC[C@H]1N` [Example B71], the EC50 was 1.18 µM in data set [1], 1.03 µM in data set [2] and above 1 µM in data set [3].

With `CC1(C)CN(CC23CC4C[C@](C)(C2)C[C@@](c2ccccc2)(C4)C3)CC[C@@H]1N` [Example C70], the results for the EC50 in data set [1], in data set [2] and in data set [3] were above 1 µM, 1.02 µM and 1.28 µM, respectively.

Consider `CCOCC12CC3CC(C(=O)N[C@H]4CC[C@@H](N)CC4)(C1)CC(c1ccccc1)(C3)C2` (mixture of isomers) [Example A29], for which the EC50 was 0.062 µM in data set [1], 0.79 µM in data set [2] and above 1 µM in data set [3]. In “in vitro”, this molecule registered a CC50 of 16.3 µM.

Consider `CC12CC3CC(C(=O)N4CC5(CCNCC5)C4)(C1)CC(c1ccccc1)(C3)C2` (racemic) [Example A44], for which the EC50 in data set [1] is 0.045 µM; in data set [2], 0.075 µM; in data set [3], 0.245 µM. The molecule further gave a CC50 in “in vitro” of 27.2 µM.

Regarding `CCC12CC3CC(CN[C@H]4CCN[C@@H](C)C4)(C1)CC(c1ccccc1)(C3)C2` (some centres unmarked) [Example A63], the EC50 in data set [1] came out at 0.725 µM; in data set [2], 0.435 µM; in data set [3] it was 0.74 µM. Besides, the midpoint of cytotoxicity in the data set “in vitro”, the CC50, lay at 1.47 µM.

Consider `CC12CC3CC(C(=O)N4CCC[C@@H](N)C4)(C1)CC(c1ccccc1)(C3)C2` (mixture of isomers) [Example A57], for which the EC50 stood at 0.055 µM in data set [1], 0.17 µM in data set [2] and 0.22 µM in data set [3]. The same molecule showed a CC50 in “in vitro” of 7.88 µM.

Turning to `CC1(C)CN(C(=O)C23CC4C[C@](C)(C2)C[C@@](c2ccccc2)(C4)C3)CCC1N` (some centres unmarked) [Example C8], the EC50 in data set [1] was 0.097 µM; in data set [2], 0.123 µM; in data set [3] it was 0.55 µM. It took 12.4 µM to reach half-maximal cytotoxicity in “in vitro” (CC50).

With `CC12CC3CC(C(=O)N4CC[C@@H](N)C4)(C1)CC(c1ccccc1)(C3)C2` (mixture of isomers) [Example A55], the results for the EC50 in data set [1], in data set [2] and in data set [3] were 0.14 µM, 0.16 µM and 0.37 µM, respectively. In “in vitro”, this molecule returned a CC50 of 12.6 µM.

As for `CC1CN(C(=O)C23CC4CC(C)(C2)CC(c2ccccc2)(C4)C3)CCC1N` (racemic) [Example A39], the results for the EC50 in data set [1], in data set [2] and in data set [3] were 0.046 µM, 0.091 µM and 0.21 µM, respectively. The midpoint of cytotoxicity in “in vitro”, the CC50, lay at 13.2 µM.

For `C[C@@]12CC3CC(C(=O)N4CC5(CC(N)C5)C4)(C1)C[C@](c1ccccc1)(C3)C2` [Example C11], the EC50 in data set [1] turned out to be 0.576 µM; in data set [2], 0.315 µM; in data set [3], 0.96 µM.

For the molecule `CC12CC3CC(C(=O)N4CCC(N)(CO)CC4)(C1)CC(c1ccccc1)(C3)C2` (racemic) [Example A46], the EC50 is 0.041 µM in data set [1], 0.048 µM in data set [2] and 0.09 µM in data set [3]. The same molecule yielded a CC50 in the data set “in vitro” of 12.2 µM.

`CC1(C)CN(CC23CC4C[C@](C)(C2)C[C@@](c2ccccc2)(C4)C3)CC[C@H]1N` [Example C71]: the EC50 in data set [1], in data set [2] and in data set [3] was above 1 µM in each case.

Regarding `CC12CC3CC(C(=O)N4C5CCC4CC(N)C5)(C1)CC(c1ccccc1)(C3)C2` (racemic) [Example A42], the EC50 was 0.033 µM in data set [1], 0.19 µM in data set [2] and 0.46 µM in data set [3]. Further, half-maximal cytotoxicity in “in vitro” (CC50) was put at 11.8 µM.

Turning to `N#CC12CC3CC(C(=O)N[C@H]4CC[C@H](N)CC4)(C1)CC(c1ccccc1)(C3)C2` (mixture of isomers) [Example A53], the EC50 in data set [1] was 0.67 µM; in data set [2], above 1 µM; in data set [3], above 1 µM.
